The OPERA property sets (Mansouri et al. 2018)
Where a SMILES comes first, the peptide text is derived from it.

| Compound | logP |
| --- | --- |
| COc1ccc(C2Cc3cc(SC(C)(C)C)ccc3N(CCN(C)C)C(=O)C2OC(C)=O)cc1 (centres undefined) | 5.6 |
| Clc1ccc(C=NOCCc2nnc(-c3ccccc3)o2)cc1 | 3.01 |
| CC(=O)N(O)CCCCCNC(=O)CCC(=O)N(O)CCCCCNC(=O)CCC(=O)N(O)CCCCCNC=O | -0.33 |
| Nc1nc(N)c2c(I)cccc2n1 | 2.12 |
| CCN(CC)CCSC(=NO)c1nc(Cc2ccccc2)no1 | 2.55 |
| O=[N+]([O-])c1ncn(C2OC(CO)C(O)C2O)n1 (centres undefined) | -1.54 |
| CCCC(=NOCC)C1=C(O)CC2(CCCC2)OC1=O | 3.22 |
| Cc1cnc(C(=O)OCCCn2ccc(=O)c(O)c2C)cn1 | -0.49 |
| CCOP(=O)(OCC)C(C)(C)[N+]([O-])=Cc1ccc([N+](=O)[O-])cc1 | 1.43 |
| CC1(C)N(O)C(c2ccc([N+](=O)[O-])cc2)=[N+]([O-])C1(C)C | 1.68 |
| O=c1ccc2cc3ccsc3cc2o1 | 2.27 |
| Cc1coc2nc3oc(=O)ccc3c(C)c12 | 1.71 |
| CCOC(=O)Nc1ccc2cc3ccc4c(c3nc2c1)COCN4C(=O)OCC | 3.12 |
| CCCCCC(O)C=CC1C(O)CC(O)C1CC=CCCCC(=O)OC (centres undefined) | 3.07 |
| c1nc(N2CCCC2)c2[nH]cnc2n1 | 1.68 |
| O=c1cc(-c2ccccc2)oc2c(Cl)cc(Cl)cc12 | 4.76 |
| COc1ccc(CCNCC(O)COc2ccc(-c3nc(C(N)=O)c[nH]3)cc2)cc1OC (centres undefined) | 2.3 |
| Cc1c(C)c2cc(C)c3occc3c2oc1=O | 3.23 |
| Cc1cnc2ccc3c(nc(N)n3C)c2n1 | 1.01 |
| C=CCC(=O)Nc1ccc(Cl)c(Cl)c1 | 3.63 |
| Cc1ccccc1Nc1ccncc1S(=O)(=O)NC(=O)NC1CCCCC1 | 4.35 |
| CC(C)NC(=O)Cn1cccc(O)c1=O | -0.34 |
| Cc1cc(=O)oc2c1c(C)cc1occ(C)c12 | 3.04 |

| Compound | logP |
| --- | --- |
| CON(C)C(=O)Nc1ccc(C2CCCCC2)cc1 | 4.08 |
| CCN(CC)c1nc(N)nc(Cl)n1 | 2.14 |
| NC(=O)c1cccc(Cn2cccn2)c1 | 0.71 |
| c1ccc(CCNc2ncnc3nc[nH]c23)cc1 | 2.42 |
| C[N+](C)([O-])CCCN1c2ccccc2Sc2ccccc21 | 1.9 |
| O=C(O)CCCCON=C(c1ccccc1)c1cncnc1 | 2.65 |
| COc1ccc(C2Cc3cc(Cl)ccc3N(CCN(C)C)C(=O)C2OC(C)=O)cc1 (centres undefined) | 4.2 |
| COC(=O)C(C)NP(=O)(OCC1C=CC(n2cc(C)c(=O)[nH]c2=O)O1)Oc1ccc(OC(F)(F)F)cc1 (centres undefined) | 1.86 |
| Cc1c(O)c(=O)ccn1CCCOC(=O)c1ccccc1 | 1.25 |
| CCCCCCCCCCCCN(C)N=Nc1ccc(C(N)=O)cc1 | 6.58 |
| Cc1cccc2nc(N)nc(N)c12 | 1.26 |
| COc1cc(OC)nc(Oc2cccc(C(F)(F)F)c2C(=O)O)n1 | 2.7 |
| COc1ccc(C2Cc3cc(OCc4ccccc4)ccc3N(CCN(C)C)C(=O)C2OC(C)=O)cc1 (centres undefined) | 5.4 |
| CC(=O)C(Cc1ccccc1)=C(C)O | 1.89 |
| CN(C)C(c1ccccc1)c1ccccc1 | 3.37 |
| CCNc1nc(N)nc(OC)n1 | 0.89 |
| CC(C)CC(N)C(=O)NC(C)C(=O)NC(CC(C)C)C(=O)O (stereo not drawn) (H-Leu-Ala-Leu-OH; configuration not given here) | -2.03 |
| Cc1oc2ccc3c(C)cc(=O)oc3c2c1C | 3.28 |
| C=CCNC(=O)N(CCCC(NC(C)=O)C(=O)NCc1ccccc1)Cc1ccccc1 (centres undefined) | 1.44 |
| CCNc1[nH]cnc2ncnc1-2 | 0.92 |
| CN(C)CCCC(c1ccccc1)c1ccccc1 | 4.91 |
| O=C1CN=C(c2ccccc2F)c2cc(Br)ccc2N1 | 2.98 |
| O=C1N=C(N2CCOCC2)CN1Cc1ccc(Br)cc1 | 1.4 |

| Compound | logP |
| --- | --- |
| COc1ccc(CCNCC(O)COc2ccc(-c3nc(Br)c[nH]3)cc2)cc1OC (centres undefined) | 3.2 |
| Cc1nc2c3c(c(C(=O)N4CCCC4)cn2c1C)CCC(c1ccccc1)O3 (centres undefined) | 3.6 |
| CC(C)CC(NC(=O)CN)C(=O)NC(CC(C)C)C(=O)NCC(=O)NC(Cc1ccccc1)C(=O)O (centres undefined) (H-GLLGF-OH; configuration not given here) | -0.18 |
| Clc1cccc(CNc2[nH]cnc3ncnc2-3)c1 | 2.89 |
| CCNC(=S)SC | 1.57 |
| COc1ccc(C2Cc3cc(C(F)(F)F)ccc3N(CCN(C)C)C(=O)C2SC(C)=O)cc1 (centres undefined) | 5.4 |
| O=C(NC1CCCCC1)NS(=O)(=O)c1cnccc1NC1CCCCC1 | 4.23 |
| Cc1cc(=O)[nH]nc1/C=C/c1ccc(-n2cnc3c2CCCC3)cc1 | 3.1 |
| CC(C)CC(NC(=O)C(CC(C)C)NC(=O)C(CC(C)C)NC(=O)C1CCCN1)C(=O)O (centres undefined) (H-PLLL-OH; configuration not given here) | -1.06 |
| CC1CC2C3CCC4=CC(=O)C=CC4(C)C3(F)C(O)CC2(C)C1(O)C(=O)COC(=O)CC1CCCCC1 (centres undefined) | 4.95 |
| CCCCCCNc1ncnc2c1ncn2C1OC(CO)C(O)C1O (centres undefined) | 2.24 |
| CCC(=O)Nc1ccc2cc3ccc(N)c(CO)c3nc2c1 | 1.55 |
| CCN(CC)C1CCc2c(OC)cccc2C1C (centres undefined) | 3.47 |
| CCCCCCNCc1ccc(C)cc1 | 4.96 |
| CC(C)(O)C1CCC2(C)CCCC(O)C2C1 (centres undefined) | 2.68 |
| O=C(Nc1ccccc1)NC1CC(C(=O)O)Nc2cc(Cl)cc(Cl)c21 (centres undefined) | 3.28 |
| CCOc1ccccc1CNc1[nH]cnc2ncnc1-2 | 2.72 |
| O=c1[nH]c(=O)n(Cc2ccc(Cl)cc2Cl)cc1F | 1.96 |
| Cc1coc2cc3oc(=O)cc(C)c3cc12 | 2.76 |
| O=C(O)CCCCCON=C(c1ccccc1)c1ncccn1 | 2.25 |
| COc1cccc(CNc2ncnc3nc[nH]c23)c1 | 2.1 |
| CCCCc1cnc(C2=NC(C)(C(C)C)C(=O)N2)c(C(=O)O)c1 (centres undefined) | 1.99 |
| CCCNc1nc(CCC)nc(N2CCOCC2)n1 | 2.7 |

| Compound | logP |
| --- | --- |
| COC(=O)C(C)NP(=O)(OCC1C=CC(n2cc(C)c(=O)[nH]c2=O)O1)Oc1ccc(Br)cc1 (centres undefined) | 1.6 |
| OCCCCCCCCNc1ncnc2c1ncn2C1OC(CO)C(O)C1O (centres undefined) | 1.3 |
| CN(C)C(=O)Nc1cccc(OCc2ccc(Cl)cc2Cl)c1 | 4.1 |
| Cc1cc2oc(=O)cc(C)c2c2occc12 | 2.84 |
| Cc1c(O)c(=O)ccn1CCCOC(=O)c1ccccc1O | 1.4 |
| COc1ccc(C2Cc3c(cccc3C(F)(F)F)N(CCN(C)C)C(=O)C2Cc2ccccc2)cc1 (centres undefined) | 7.2 |
| CC(C)(C)[N+]([O-])=Cc1cccc(O)c1 | 1 |
| Nc1nc(Cl)nc2c1ncn2[C@H]1C[C@H](O)[C@@H](CO)O1 | 0.02 |
| C[N+](C)([O-])CCCc1ccccc1 | -0.04 |
| NC(Cc1ccccc1)C(=O)NCC(=O)NCC(=O)NC(Cc1ccccc1)C(=O)O (centres undefined) (H-FGGF-OH; configuration not given here) | -1.51 |
| COc1ccc(CCNCC(O)COc2ccc(-c3nc(C)c[nH]3)cc2Br)cc1OC (centres undefined) | 3.8 |
| Cc1c(O)c(=O)ccn1CCCOC(=O)c1cccnc1 | -0.25 |
| CCCc1c(C)nc2cccc(C)n2c1=O | 2.22 |
| COC(=O)C(Cc1ccccc1)(Cc1ccccc1)S(=O)(=O)c1ccc([N+](=O)[O-])cc1 | 4.46 |
| O=c1[nH]c2cc(Cl)c(Cl)c([N+](=O)[O-])c2[nH]c1=O | 0.21 |
| O=C(Nc1ccccc1)c1ccccc1I | 2.85 |
| N#Cc1cccc(Cn2ccnc2)c1 | 1.01 |
| COc1cnc(C2=NC(C)(C(C)C)C(=O)N2)c(C(=O)O)c1 (centres undefined) | 0.61 |
| COc1cccc(NC(=O)OCCN2CCCCC2)c1 | 3.32 |
| O=C(O)c1cc(O)c2ccc(Cl)cc2n1 | 1.05 |
